Among the data in US20260070945A1, “MACROCYCLIC IMMUNOMODULATORS” (Bristol-Myers Squibb Company, priority 2022, published 2026) are IC50 values, retold here.

*1 amine or outer side, *2 acyl side, *3 side chain or, on linkers, in order; H or OH if unused. Where a SMILES comes first, the peptide text is derived from it. Bridges are numbered along the chain shown (N, C = ends). [ ]: non-standard residue; d: D form. The star is where a group is joined. Phe(3-CF3) = N[C@@H](Cc1cccc(C(F)(F)F)c1)C(=O)O; Ala(morpholin-4-yl) = N[C@@H](CN1CCOCC1)C(=O)O; Phe(4-COOH) = N[C@@H](Cc1ccc(C(=O)O)cc1)C(=O)O; Bip = N[C@@H](Cc1ccc(-c2ccccc2)cc1)C(=O)O; γGlu = O=C(O)[C@H](CCC(=O)[*:2])N[*:1]; Abu(3S-NH2) = C[C@H](N)[C@H](N)C(=O)O; NH(CH2)12COOH = O=C(O)CCCCCCCCCCCCN*; Val(3-OH) = CC(C)(O)[C@H](N)C(=O)O; 4Pal = N[C@@H](Cc1ccncc1)C(=O)O; Cha = N[C@@H](CC1CCCCC1)C(=O)O; Cit = NC(=O)NCCC[C@H](N)C(=O)O; Carboxymethyl = O=C(O)C*; NMeA = CN[C@@H](C)C(=O)O; Orn = NCCC[C@H](N)C(=O)O; Aun = NCCCCCCCCCCC(=O)O; Dab = NCC[C@H](N)C(=O)O; AEEA = NCCOCCOCC(=O)O

The assay deals with T1, PD-1/PD-L1 interaction (PE-labeled human PD-L1-Ig binding to Jurkat cell line over-expressing human PD-1) (Homo sapiens, UniProt Q15116).
T1 construct: expressed in transfected cells; host or cells: Jurkat
T1 sequence (Q15116 25-288): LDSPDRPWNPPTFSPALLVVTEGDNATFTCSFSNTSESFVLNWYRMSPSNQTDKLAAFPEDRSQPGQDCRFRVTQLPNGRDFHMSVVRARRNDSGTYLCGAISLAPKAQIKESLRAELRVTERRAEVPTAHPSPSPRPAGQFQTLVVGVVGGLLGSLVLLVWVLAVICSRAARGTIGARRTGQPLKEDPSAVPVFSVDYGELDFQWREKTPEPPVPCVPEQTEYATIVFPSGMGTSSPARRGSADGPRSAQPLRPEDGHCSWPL
Put plainly: Jurkat-PD-1 Cell Binding High-Content Screening Assay (CBA). The settings on record: Jurkat-hPD-1 cells, PE-labeled PD-L1-Ig 20 nM final; read-out: Jurkat HPD1 PDL1 IC50. A digest of the protocol:
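Jurkat-hPD-1 cells (8×10^3/well) in DMEM with 10% fetal calf serum were preincubated with compound for 2 h at 37 °C. PE-labeled PD-L1-Ig was then added at 20 nM final for 1 h. Cells were fixed in paraformaldehyde with Hoechst 33342, washed and imaged by high-content imaging.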
For orientation: IC50 means the midpoint of a concentration-inhibition curve. Consider `CC(C)C[C@H]1NC(=O)[C@H](C)N(C)C(=O)[C@H](CCCNC(N)=O)NC(=O)[C@H](Cc2ccc(-c3ccccc3)cc2)NC(=O)[C@H](Cc2ccc(C(=O)O)cc2)NC(=O)[C@H](Cc2cccc(C(F)(F)F)c2)NC(=O)[C@H](CC(=O)O)NC(=O)[C@H](Cc2ccc(OCC(=O)O)cc2)NC(=O)[C@H](CN2CCOCC2)NC(=O)CSC[C@@H](C(=O)N[C@@H](CCN)C(=O)NCCCCCCCCCCCCC(=O)O)NC(=O)[C@H](Cc2c[nH]cn2)NC(=O)[C@H](C(C)(C)O)NC(=O)[C@H](CC2CCCCC2)NC(=O)[C@H](CCN)NC1=O` [Example 1193] ({CH2CO}-[Ala(morpholin-4-yl)]Y(Carboxymethyl)D[Phe(3-CF3)][Phe(4-COOH)][Bip][Cit][NMeA][dL][Dab][Cha][Val(3-OH)]HC[Dab]-{NH(CH2)12COOH}; thioether N-14), for which the IC50 worked out at 15.6 nM.

On to `CC(C)C[C@H]1NC(=O)[C@H](C)N(C)C(=O)[C@H](CCCNC(N)=O)NC(=O)[C@H](Cc2ccc(-c3ccccc3)cc2)NC(=O)[C@H](Cc2ccc(C(=O)O)cc2)NC(=O)[C@H](Cc2cccc(C(F)(F)F)c2)NC(=O)[C@H](CC(=O)O)NC(=O)[C@H](Cc2ccc(OCC(=O)O)cc2)NC(=O)[C@H]([C@H](C)N)NC(=O)CSC[C@@H](C(=O)N[C@@H](CCN)C(=O)NCCCCCCCCCCCCC(=O)O)NC(=O)[C@H](CCC(=O)O)NC(=O)[C@H](C(C)C)NC(=O)[C@H](CC2CCCCC2)NC(=O)[C@H](CCN)NC1=O` [Example 1194] ({CH2CO}-[Abu(3S-NH2)]Y(Carboxymethyl)D[Phe(3-CF3)][Phe(4-COOH)][Bip][Cit][NMeA][dL][Dab][Cha]VEC[Dab]-{NH(CH2)12COOH}; thioether N-14), for which the half-maximal inhibitory concentration (IC50) amounted to 7.9 nM. With `CC(C)C[C@H]1NC(=O)[C@H](C)N(C)C(=O)[C@H](CCCNC(N)=O)NC(=O)[C@H](Cc2ccc(-c3ccccc3)cc2)NC(=O)[C@H](Cc2ccc(C(=O)O)cc2)NC(=O)[C@H](Cc2cccc(C(F)(F)F)c2)NC(=O)[C@H](CC(=O)O)NC(=O)[C@H](Cc2ccc(OCC(=O)O)cc2)NC(=O)[C@H]([C@H](C)N)NC(=O)CSC[C@@H](C(=O)N[C@@H](CCN)C(=O)NCCCCCCCCCCCCC(=O)O)NC(=O)[C@H](Cc2c[nH]cn2)NC(=O)[C@H](C(C)(C)O)NC(=O)[C@H](CC2CCCCC2)NC(=O)[C@H](CCN)NC1=O` [Example 1197] ({CH2CO}-[Abu(3S-NH2)]Y(Carboxymethyl)D[Phe(3-CF3)][Phe(4-COOH)][Bip][Cit][NMeA][dL][Dab][Cha][Val(3-OH)]HC[Dab]-{NH(CH2)12COOH}; thioether N-14) the figure was 18.9 nM; with `CC(C)C[C@H]1NC(=O)[C@H](C)N(C)C(=O)[C@H](Cc2ccc(C(=O)O)cc2)NC(=O)[C@H](Cc2ccc(-c3ccccc3)cc2)NC(=O)[C@H](Cc2ccc(C(=O)O)cc2)NC(=O)[C@H](Cc2cccc(C(F)(F)F)c2)NC(=O)[C@H](CC(=O)O)NC(=O)[C@H](Cc2ccc(OCC(=O)O)cc2)NC(=O)[C@H](CN2CCOCC2)NC(=O)CSC[C@@H](C(=O)N[C@@H](CCN)C(=O)NCCCCCCCCCCCCC(=O)O)NC(=O)[C@H](CCC(=O)O)NC(=O)[C@H](C(C)C)NC(=O)[C@H](CC2CCCCC2)NC(=O)[C@H](CCN)NC1=O` [Example 1198] ({CH2CO}-[Ala(morpholin-4-yl)]Y(Carboxymethyl)D[Phe(3-CF3)][Phe(4-COOH)][Bip][Phe(4-COOH)][NMeA][dL][Dab][Cha]VEC[Dab]-{NH(CH2)12COOH}; thioether N-14), 19.6 nM; with `CC(C)C[C@H]1NC(=O)[C@H](C)N(C)C(=O)[C@H](Cc2ccc(C(=O)O)cc2)NC(=O)[C@H](Cc2ccc(-c3ccccc3)cc2)NC(=O)[C@H](Cc2ccc(C(=O)O)cc2)NC(=O)[C@H](Cc2cccc(C(F)(F)F)c2)NC(=O)[C@H](CC(=O)O)NC(=O)[C@H](Cc2ccc(OCC(=O)O)cc2)NC(=O)[C@H]([C@H](C)N)NC(=O)CSC[C@@H](C(=O)N[C@@H](CCN)C(=O)NCCCCCCCCCCCCC(=O)O)NC(=O)[C@H](CCC(=O)O)NC(=O)[C@H](C(C)C)NC(=O)[C@H](CC2CCCCC2)NC(=O)[C@H](CCN)NC1=O` [Example 1199] ({CH2CO}-[Abu(3S-NH2)]Y(Carboxymethyl)D[Phe(3-CF3)][Phe(4-COOH)][Bip][Phe(4-COOH)][NMeA][dL][Dab][Cha]VEC[Dab]-{NH(CH2)12COOH}; thioether N-14), 18 nM. With `CC(C)C[C@H]1NC(=O)[C@H](C)N(C)C(=O)[C@H](CCC(N)=O)NC(=O)[C@H](Cc2ccc(-c3ccccc3)cc2)NC(=O)[C@H](Cc2ccc(C(=O)O)cc2)NC(=O)[C@H](Cc2cccc(C(F)(F)F)c2)NC(=O)[C@H](CC(=O)O)NC(=O)[C@H](Cc2ccc(OCC(=O)O)cc2)NC(=O)[C@H]([C@H](C)N)NC(=O)CSC[C@@H](C(=O)N[C@@H](CCN)C(=O)NCCOCCOCC(=O)N[C@@H](CCC(=O)NCCOCCOCC(=O)NCCCCCCCCCCCCC(=O)O)C(=O)O)NC(=O)[C@H](CCC(=O)O)NC(=O)[C@H](C(C)C)NC(=O)[C@H](CC2CCCCC2)NC(=O)[C@H](CCN)NC1=O` [Example 1200] ({CH2CO}-[Abu(3S-NH2)]Y(Carboxymethyl)D[Phe(3-CF3)][Phe(4-COOH)][Bip]Q[NMeA][dL][Dab][Cha]VEC[Dab][AEEA][γGlu][AEEA]-{NH(CH2)12COOH}; thioether N-14) the figure was 28.1 nM; with `CC(=O)NCCCC[C@@H]1NC(=O)[C@H](C(C)(C)O)NC(=O)[C@H](CC2CCCCC2)NC(=O)[C@H](CCN)NC(=O)[C@@H](CC(C)C)NC(=O)[C@H](C)N(C)C(=O)[C@H](CCC(N)=O)NC(=O)[C@H](Cc2ccc(-c3ccccc3)cc2)NC(=O)[C@H](Cc2ccc(C(=O)O)cc2)NC(=O)[C@H](Cc2cccc(C(F)(F)F)c2)NC(=O)[C@H](CC(=O)O)NC(=O)[C@H](Cc2ccc(OCC(=O)O)cc2)NC(=O)[C@H]([C@H](C)N)NC(=O)CSC[C@@H](C(=O)N[C@@H](CCN)C(=O)NCCOCCOCC(=O)N[C@@H](CCC(=O)NCCOCCOCC(=O)NCCCCCCCCCCCCC(=O)O)C(=O)O)NC1=O` [Example 1202] ({CH2CO}-[Abu(3S-NH2)]Y(Carboxymethyl)D[Phe(3-CF3)][Phe(4-COOH)][Bip]Q[NMeA][dL][Dab][Cha][Val(3-OH)]K(Ac)C[Dab][AEEA][γGlu][AEEA]-{NH(CH2)12COOH}; thioether N-14), 16 nM. With `CC(C)C[C@H]1NC(=O)[C@H](C)N(C)C(=O)[C@H](CCC(N)=O)NC(=O)[C@H](Cc2ccc(-c3ccccc3)cc2)NC(=O)[C@H](Cc2ccc(C(=O)O)cc2)NC(=O)[C@H](Cc2cccc(C(F)(F)F)c2)NC(=O)[C@H](CC(=O)O)NC(=O)[C@H](Cc2ccc(OCC(=O)O)cc2)NC(=O)[C@H]([C@H](C)N)NC(=O)CSC[C@@H](C(=O)N[C@@H](CCN)C(=O)NCCOCCOCC(=O)N[C@@H](CCC(=O)NCCOCCOCC(=O)NCCCCCCCCCCCCC(=O)O)C(=O)O)NC(=O)[C@H](Cc2c[nH]cn2)NC(=O)[C@H](C(C)(C)O)NC(=O)[C@H](CC2CCCCC2)NC(=O)[C@H](CCN)NC1=O` [Example 1203] ({CH2CO}-[Abu(3S-NH2)]Y(Carboxymethyl)D[Phe(3-CF3)][Phe(4-COOH)][Bip]Q[NMeA][dL][Dab][Cha][Val(3-OH)]HC[Dab][AEEA][γGlu][AEEA]-{NH(CH2)12COOH}; thioether N-14) the figure was 21.5 nM. As for `CC(C)C[C@H]1NC(=O)[C@H](C)N(C)C(=O)[C@H](CCCNC(N)=O)NC(=O)[C@H](Cc2ccc(-c3ccccc3)cc2)NC(=O)[C@H](Cc2ccc(C(=O)O)cc2)NC(=O)[C@H](Cc2cccc(C(F)(F)F)c2)NC(=O)[C@H](CC(=O)O)NC(=O)[C@H](Cc2ccc(OCC(=O)O)cc2)NC(=O)[C@H]([C@H](C)N)NC(=O)CSC[C@@H](C(=O)N[C@@H](CCN)C(=O)NCCOCCOCC(=O)N[C@@H](CCC(=O)NCCOCCOCC(=O)NCCCCCCCCCCCCC(=O)O)C(=O)O)NC(=O)[C@H](CO)NC(=O)[C@H](C(C)(C)O)NC(=O)[C@H](CC2CCCCC2)NC(=O)[C@H](CCN)NC1=O` [Example 1205] ({CH2CO}-[Abu(3S-NH2)]Y(Carboxymethyl)D[Phe(3-CF3)][Phe(4-COOH)][Bip][Cit][NMeA][dL][Dab][Cha][Val(3-OH)]SC[Dab][AEEA][γGlu][AEEA]-{NH(CH2)12COOH}; thioether N-14), the IC50 came out at 24.7 nM. `CC(=O)NCCCC[C@@H]1NC(=O)[C@H](C(C)(C)O)NC(=O)[C@H](CC2CCCCC2)NC(=O)[C@H](CCN)NC(=O)[C@@H](CC(C)C)NC(=O)[C@H](C)N(C)C(=O)[C@H](CCCNC(N)=O)NC(=O)[C@H](Cc2ccc(-c3ccccc3)cc2)NC(=O)[C@H](Cc2ccc(C(=O)O)cc2)NC(=O)[C@H](Cc2cccc(C(F)(F)F)c2)NC(=O)[C@H](CC(=O)O)NC(=O)[C@H](Cc2ccc(OCC(=O)O)cc2)NC(=O)[C@H]([C@H](C)N)NC(=O)CSC[C@@H](C(=O)N[C@@H](CCN)C(=O)NCCOCCOCC(=O)N[C@@H](CCC(=O)NCCOCCOCC(=O)NCCCCCCCCCCCCC(=O)O)C(=O)O)NC1=O` [Example 1206] ({CH2CO}-[Abu(3S-NH2)]Y(Carboxymethyl)D[Phe(3-CF3)][Phe(4-COOH)][Bip][Cit][NMeA][dL][Dab][Cha][Val(3-OH)]K(Ac)C[Dab][AEEA][γGlu][AEEA]-{NH(CH2)12COOH}; thioether N-14): the 50% inhibitory concentration (IC50) was 6.9 nM. Consider `CC(C)C[C@@H]1NC(=O)[C@H](Cc2c[nH]c3ccccc23)NC(=O)[C@H](CC(=O)O)NC(=O)[C@H](Cc2ccncc2)NC(=O)[C@H](Cc2ccc(OCC(=O)O)cc2)NC(=O)CSC[C@@H](C(=O)N[C@@H](CCN)C(=O)NCCCCCCCCCCC(=O)O)NC(=O)[C@H](CCCN)NC(=O)[C@H](C(C)C)NC(=O)[C@H](CC2CCCCC2)NC(=O)[C@H](CCN)NC(=O)[C@@H](CC(C)C)NC(=O)[C@H](C)N(C)C(=O)[C@H](C(C)C)NC(=O)[C@H](Cc2ccc(-c3ccccc3)cc2)NC1=O` [Example 1210] ({CH2CO}-Y(Carboxymethyl)[4Pal]DWL[Bip]V[NMeA][dL][Dab][Cha]V[Orn]C[Dab][Aun]-OH; thioether N-14), for which the concentration for half-maximal inhibition (IC50) is 9.4 nM.
